Measured values reported in patent US20230303486A1, “CYCLOBUTYL-UREA DERIVATIVES” (Idorsia Pharmaceuticals Ltd, priority 2020, published 2023).
Read-outs that look alike come from different tables or passages of the source.

Columns and labels:
[1] = system: audiogenic generalized convulsive seizures in DBA/2J mice; test: Audiogenic seizure-sensitive mouse model of generalized convulsive seizures; type: in vivo; details: challenge 1h
Procedure: Compounds were formulated in a 10% polyethylene glycol 400 (PEG 400) / 90% aqueous solution of 0.5 % methylcellulose (MC 0.5%). Firstly drugs are dissolved in PEG 400 and then suspended in MC 0.5 % for oral gavage at Xmg/5 mL/kg (X see table).
• 1. Procedure: Following two days of acclimatisation, auditory seizures are induced in male juvenile DBA/2J mice (22-24 days old; Janvier Labs, France). Each mouse is placed individually in the exposure chamber, an hemispheric acrylic glass dome (diameter: 50 cm) within a sound-attenuated box. The soundattenuated box is equipped with two house lights and a camera system (Fire-I from Unibrain) in order to observe and record the behavioral seizure response. After 60 seconds of habituation, the stimulus, a mixed frequency tone of 15-20 kHz at 110 dB (SASLab Lite, Avisoft Bioacoustics), is played from a speaker that is placed on the top center of the dome. […] Seizures are classified as following: stage 0, normal behavior; stage 1, wild running; stage 2, generalized clonus; stage 3, tonic extension of the hind limbs. • 2. Compounds testing: Acute compound effects on audiogenic generalized convulsive seizures are evaluated in independent groups of 8-10 mice randomly assigned. Following oral administration of compound or vehicle, the maximum seizure stage during sound exposure is assessed. Compounds are given 1 hour before exposure to the stimulus. Each mouse is exposed to the auditory stimulus only once and euthanized afterwards by CO2 inhalation.

[2] = system: primary neuronal cultures from embryonic rat brains; test: Rat oscillation assay (FLIPR, neuronal calcium oscillations); type: cell-based; details: Rattus norvegicus
Procedure: This assay is a functional phenotypic assay designed to mimic epileptic seizures using primary neuronal cultures from embryonic rat brains, which form a functional neuronal network that generate synchronized intracellular calcium concentration oscillations when cultured at high density in 384-well plate. The epileptic phenotype is induced by incubating the neurons in magnesium-free assay buffer, that results in increased probability of NMDA receptor activation, leading to an increased frequency and amplitude of intracellular calcium oscillations. Once neurons are incubated with the calcium indicator dye Fluo-8 AM (Tebu-bio), neuronal calcium oscillations can be monitored in real time using FLIPR® Tetra (fluorometric plate reader, Molecular Devices). With these recordings, the effect of anti-epileptic drugs can be quantified. The anti-epileptic effect of compounds, which activate directly or indirectly the Kv7 channels can be modulated by the Kv7 channel blocker XE-991. The assay was performed as described previously (Pacico N, Mingorance-Le Meur A. New In Vitro Phenotypic Assay for Epilepsy: Fluorescent Measurement of Synchronized Neuronal Calcium Oscillations. PLoS ONE 9(1) 2014) with modifications described hereafter.
Animal care followed standard procedures in accordance with swiss institutional guidelines. Dissociated neuronal cultures were obtained from cerebral cortices of embryonic Wistar rats at embryonic stage E18 (Charles River). The uterine horns were removed by caesarian surgery from deeply anesthetized rats (Isofurane) and sacrificed by decapitation. The embryos were decapitated by closing forceps. The brains were isolated and dissected one by one in ice-cold PBS (Life Technologies) under optical control using a binocular. Meninges, olfactory bulbs, and basal ganglia were removed. Cortical hemispheres (still including the hippocampus) were cut in small pieces with tweezers and placed on ice in prechilled Hibernate-E medium (Life technology). The hemispheres were then incubated in 10 mL of Hibernate-E containing 15 U/mL papain (Worthington) for 25 min at 30° C. with gentle mixing every 10 min. Genomic DNA was then digested by prolonging the incubation during 10 min at 37° C. in presence of 4 U/mL rDNase I (Ambion). The obtained suspension was then centrifuged at 800 g for 5 min and the cell pellet was resuspended in 2 mL Hibernate-E and gently dissociated by pipetting up and down 10 times with a plastic Pasteur pipette resulting in a homogenous cell suspension. This suspension was immediately filtered through a 70 µm cell strainer (MACS® SmartStrainer, Miltenyi), collected in 10 mL Hibernate-E and centrifuged at 800 g for 5 min. The cell pellet was resuspended in Neurobasal medium, supplemented with 2% B-27, 0.5 mM Glutamax-I, 100 U/mL penicillin, 100 µg/mL streptomycin (Life Technologies) and diluted at the final concentration of 300′000 cells/mL. One day before plating the cells, 384-well plates were coated with 25 µL/well of 0.1 % poly-L-lysine solution (Sigma), incubated overnight at 37° C., washed two times with sterile distilled water and allowed to dry at room temperature for >2 h. The neurons were seeded at a density of 15′000 cells/well in 50 µL/well in a 384-well black, clear-bottomed plates (Corning) and subsequently maintained in an incubator at 37° C., 5% CO2 and 95% humidity for 8 to 10 days. After 3 and 7 days, 40% of media was renewed under sterile conditions.
Neurons seeded in the assay plates were washed with Hank’s balanced salt solution (HBSS) devoid of Ca^2+ and Mg^2+, supplemented with 20 mM HEPES (Life Technologies) and 2 mM CaCl2 (Sigma), pH 7.4 (hereafter called Assay buffer) using a Biotek EL406 plate washer. Neurons were loaded with 1 µM Fluo-8 AM in Assay buffer for 15 min at 37° C., 5% CO2. […]

[3] = target: T1, Kv7.2/7.3 (human KCNQ2 and KCNQ3 genes) in HEK293 cells (Homo sapiens, UniProt O43525+O43526); test: Kv7.2/3 assay (FLIPR potassium assay, agonist mode); type: cell-based; details: Kv7.2/7.3 activation, responses relative to Flupirtine
T1 construct: host or cells: HEK293
Procedure: HEK293 cells were stably transfected with the appropriate ion channel cDNA(s) (human KCNQ2 and KCNQ3 genes). Cells were cultured in Dulbecco’s Modified Eagle Medium /Nutrient mixture F-12 (D-MEM/F-12) supplemented with 10% fetal bovine serum, 100 U/mL penicillin G sodium, 100 µg/mL streptomycin sulfate and selection antibiotics. FLIPR Test Procedure: For FLIPR assay, cells were plated in 384-well black clear-bottomed microtiter plates (BD Biocoat Poly-D-Lysine Multiwell Cell Culture Plate) at 15′000 to 30′000 cells per well. Cells were incubated at 37° C. overnight or until cells reached sufficient density in the wells (near confluent monolayer) to use in fluorescence assays. […] Assays were performed with the FLIPR potassium assay kit (Molecular Devices) according to the manufacturer’s instructions. Dye-loading: Growth media was removed and replaced with 20 µL of dye loading buffer for 60 min at room temperature. FLIPR Recording (agonist mode): Stock solutions of test compounds were prepared at a concentration of 33.3 mM in DMSO. 5 µL of 5x concentrated test, vehicle, or control compounds solutions prepared in the stimulation buffer (K^+-free buffer with 5 mM TI^+) were added to each well and fluorescence recording was continued for 5 min. The agonist effect (EC50 and % effect) of test or control compounds on Kv7 channels was determined as follows: Raw data was exported using Screenworks® 4.2 software and the fluorescence traces were analysed using Microsoft Excel (Microsoft Corp., Redmond, WA). The test compounds responses were expressed as % of maximum response of the control compound Flupirtine (Sigma-Aldrich), which was tested at concentrations ranging from 0.03 to 100 µM. Concentration-response data were fitted to a Hill equation. Non-linear least squares fits were made assuming a simple binding model. If appropriate, fits were weighted by the standard deviation. No assumptions about the fit parameters were made; the fit parameters were determined by the algorithm.

[4] = system: patients with drug-resistant focal-onset seizures; details: two phase three trials; cited from earlier work
[5] = system: Knock-in mice carrying a KCNQ2 or KCNQ3 variant; details: knock-in mice with spontaneous seizures, reduced seizure thresholds; cited from earlier work
[6] = system: seizure activity in various rodent models; details: acute seizure models, DBA2 mice, rat kindling model; cited from earlier work
[7] = 20 min, 20 min after compound addition, AUC of fluorescence, read-out: FLIPR: IC50 [nM] 20 min
[8] = Cortical neurone, acute phase, ratio of AUC fluorescence before and after compound addition, rat cortical neurons, Mg-free buffer, read-out: FLIPR: IC50 [nM] acute

Row | SMILES | Seizure stage [% vs. vehicle] ([1]; 30 mg/kg po) | IC50 [2, 7] [nM] | IC50 [2, 8] [nM] | EC50 [3] [nM] | Seizure stage [% vs. vehicle] ([1]; 15 mg/kg po) | seizure frequency [4] | seizures [5] | seizure activity [6]
1 | O=C(NCc1cccc(OC(F)(F)F)c1)NC12CC(F)(C1)C2 [Example 24, 1-(3-Fluoro-bicyclo[1.1.1]pent-1-yl)-3-(3-trifluoromethoxybenzyl)-urea] | -100 | 198 | 208 | 143 | – | – | – | –
2 | O=C(NCc1cccc(C(F)(F)F)c1)NC12CC(C(F)(F)F)(C1)C2 [Example 37, 1-(3-Trifluoromethyl-benzyl)-3-(3-trifluoromethyl-bicyclo[1.1.1]pent-1-yl)-urea] | – | 32 | 26 | 30 | -100 | – | – | –
3 | CCOC(=O)Nc1ccc(NCc2ccc(F)cc2)cc1N [Retigabine/ezogabine] | – | – | – | – | – | significantly reduced seizure frequency | attenuated | reduces seizure activity
